# Assay results published in US20180265934A1, “COINCIDENCE REPORTER GENE SYSTEM” (The United States of America, as represented by the …, priority 2013, published 2018).
# pEC50: −log10 of the molar value. Where two headings read alike, the source gives them in different places.
# Experiments:
# [1] = system: p53 RE; experiment: FLuc2P-NLucP reporter assay, p53 RE-driven construct (pCI-4.38) in HEK293 cells; format: cell-based; conditions: 10 μM etoposide, 24 h
# Experimental: (§1) The FLuc2P-NLucP reporter assay and compound test was carried out as follows. This protocol measures bioluminescence derived from both FLuc2P and NLucP. The purified DNA construct pCI-4.38 was transfected into HEK293 cells and the cells were cultured as described in Example 1. Sixteen hours after transfection, the cells were trypsinized and then dispensed at 2,000 cells/20 μL/well into two 384-well tissue culture treated white/solid bottom plates (Greiner Bio-One North America). After adding Etoposide (Sigma) or control DMSO, the assay plates were incubated at 37° C. for 24 hours before adding the ONE-GLO or NANO-GLO detection reagents (Promega). Luminescence from luciferase activity was detected by using a VIEWLUX plate reader (PerkinElmer).
# [2] = system: cAMP-response element (CRE) / CREB pathway; experiment: LOPAC1280 qHTS, 4×CRE-driven FLuc-P2A-RLuc coincidence reporter (pCI-6.24) in GripTite 293 MSR cells; format: cell-based; conditions: for pEC50: GripTite 293 MSR
# Experimental: This protocol measures bioluminescence derived from both FLuc and RLuc expression from a single assay. […] Sixteen hours after transfection, cells were trypsinized and then dispensed at 2,000 cells/20 μL/well in 384-well tissue culture treated white/solid bottom plates (Greiner Bio-One North America, Monroe, N.C.). The assay plates were incubated at 37° C. for 10 hours before adding the DUAL-GLO detection reagent (Promega). Luminescence from luciferase activity was detected by using a VIEWLUX plate reader (PerkinElmer, Waltham, Mass.).
# Sixteen hours after transfection, cells were trypsinized and then dispensed at 500 cells/4 μL/well in 1,536-well tissue culture treated white/solid bottom plates (Greiner Bio-One North America) using a multidrop combi dispenser (Thermo Fisher Scientific). […] The assay plates were incubated at 37° C. for 10 hours before adding the DUAL-GLO detection reagent (3.5 μL+3.5 μL for each well) (Promega). Luminescence from luciferase activity was detected by using VIEWLUX (PerkinElmer). Each experimental plate contained forskolin as a positive control and DMSO as a negative control. Percentage activity was defined as the percentage signal relative to forskolin (100%) and DMSO (0%).
# [3] = system: SV40 promoter; experiment: Compound test, SV40-driven FLuc-P2A-RLuc construct (pCI-6.20); format: cell-based; conditions: pCI-6.20 construct
# Experimental: (§2) For the compound test, forskolin, PTC124 and BTS were prepared in a 24-point intraplate titration format and pre-diluted in the cell culture medium. Purified pCI-6.24 construct was transfected into GRIPTITE 293 MSR cells (Life Technologies). Sixteen hours post transfection, cells were trypsinized and then dispensed at 2,000 cells/15 μL/well in 384-well tissue culture treated white/solid bottom plates (Greiner Bio-One North America). Five μL of pre-diluted compound was transferred into assay plates, resulting in a final concentration ranging from 0.027 nM to 227 μM (forskolin) and 0.011 nM to 91 μM (PTC124 and BTS). The assay plates were incubated at 37° C. for 10 hours. FLuc and RLuc activities were then detected using DUAL-GLO reagent (Promega) and a VIEWLUX plate reader (PerkinElmer). Concentration-response curves and concentrations of half-maximal activity (EC50) for each compound were generated by using PRISM 4 software (GraphPad Software, Inc., La Jolla, Calif.).
# This experiment was repeated with cells transfected with the pCl-6.20 construct, which encoded FLuc-P2A-RLuc under the control of the SV40 […].
# [4] = system: Parkin expression; conditions: previously demonstrated, Bouman et al. 2011; cited from earlier work
# [5] = system: PARK2 (Parkin) gene expression; experiment: Compound library screening, Parkin coincidence reporter cell line (FLuc-P2A-NLuc in PARK2 locus, BE(2)-M17 cells), 1536-well; format: cell-based, human; conditions: 24 h, titration
# Experimental: Construction of the Parkin coincidence reporter cell line by TALEN-mediated genome editing was carried out as follows. To generate a double-strand cleavage of the genomic DNA in the first codon of the PARK2 gene, constructs encoding transcription activator-like effector nuclease (TALEN) pairs (Right and Left) encoding components of the heterodimeric FokI nuclease were generated as described by Huang et al., Nature Biotechnology, 29: 699-700 (2011). The TALEN pair was designed to generate a double-strand cleavage at or near the first translation codon (ATG) within the Parkin gene. These constructs were transfected with Lipofectamine LTX (Life Technologies) into BE(2)-M17 cells (ATCC) […] along with a GFP-expressing marker plasmid and the coincidence reporter donor plasmid. After 48 hours of incubation in a tissue culture incubator, GFP-positive cells were sorted by FACS analysis and single clones were isolated and expanded. Once sufficient cell populations for each clone were achieved, analysis of correct genomic insertion of the Fluc-P2A-NLuc-PEST-PolyA coincidence reporter cassette that replaced the “ATGATAG” (SEQ ID NO: 362) sequence at the […] of the PARK2 gene exon 1 was ascertained by PCR and DNA sequencing of genomic DNA preparations (QIAGEN).
# Compound library screening in 1536-well plates was carried out as follows. The Parkin coincidence reporter cell line was seeded at a density of 2000 cell/well into white, solid bottom, tissue-culture treated (Greiner Bio-One), 1536-well microplates in a total of 5 μL/well of culture medium. After a 16 hour incubation in a tissue-culture incubator, a compound pin tool (Wako) was used to transfer 20 nL of compound dissolved in DMSO for library plates to the assay plates. Compounds were present in either a 6 or 12-point titration in the library plates. DMSO vehicle, CCCP, and PTC-124 were also added to the designated control well. After a 24 hour incubation in the tissue culture incubator, the volume in each well of both plates was reduced to 2 μL with a microplate aspiration system (BioTek) and then 2 μL of Firefly Luciferase assay reagent (Promega) was added to every well each plate and luminescent signal from each well of each plate was measured on a VIEWLUX plate reader (PerkinElmer). Following the first read, 2 μL of NanoLuc assay reagent (Promega) including a proprietary firefly luciferase inhibitor (to quench the firefly reaction) was added to every well of each plate. After a second 15 minute incubation at room temperature, the NanoLuc signal from each well of each plate was measured on the VIEWLUX. Raw luminescent signal is expressed as a % of the positive control (10 uM CCCP for NanoLuc and 500 nM PTC-124 for FLuc).
# [6] = system: cAMP-response element (CRE), adenylyl cyclase signaling; experiment: Compound test, 24-point titration, 4×CRE-driven FLuc-P2A-RLuc (pCI-6.24), 384-well; format: cell-based; conditions: PTC124 on FLuc, BTS on RLuc; relative to non-treated control
# Experimental: as §2
# [7] = system: ARE; experiment: FLuc2P-NLucP reporter assay, ARE-driven construct (pCI-4.37) in HEK293 cells; format: cell-based; conditions: 100 μM tBHQ, 24 h
# Experimental: as §1, with “A” for “The”, “pCI-4.37” for “pCI-4.38”, “cells.” for “cells and the cells were cultured as described in Example 1.”, “and” for “and then”, “tert-Butylhydroquinone (tBHQ)” for “Etoposide”
compound,measurement,setting,value
"COc1cc([C@@H]2c3cc4c(cc3[C@@H](O[C@@H]3O[C@@H]5CO[C@@H](C)O[C@H]5[C@H](O)[C@H]3O)[C@H]3COC(=O)[C@H]23)OCO4)cc(OC)c1O [etoposide, Etoposide]",reporter output vs DMSO,[1],greater RLU values
"C=C[C@@]1(C)CC(=O)[C@]2(O)[C@@]3(C)[C@@H](O)CCC(C)(C)[C@@H]3[C@H](O)[C@H](OC(C)=O)[C@@]2(C)O1 [cpd 19, Forkskolin]",Ratio F/R,"[2]; FLuc EC50 / RLuc EC50, Table 5",0.90
same,pEC50,"[2]; 10 h, Table 5, coincident activators, FLuc readout, 10 h, ~4 nM to 57 μM, read-out: FLuc EC50",5.88
same,pEC50,"[2]; 10 h, Table 5, coincident activators, RLuc readout, 10 h, ~4 nM to 57 μM, read-out: RLuc EC50",5.83
same,pEC50,"[2]; FLuc readout, 1536 interplate format, read-out: Intraplate Forskolin Control Mean",6.07
same,pEC50,"[2]; RLuc readout, 1536 interplate format, read-out: Intraplate Forskolin Control Mean",6.06
same,activity where reporter expression was driven by the SV40 promoter,[3],inactive
Tunicamycin,induction of Parkin expression,[4],induce Parkin expression
O=C(O)c1cccc(-c2noc(-c3ccccc3F)n2)c1 [PTC124],coincident reporter response (FLuc and NLuc),[5],do not elicit a coincident reporter response
same,signal obtained through reporter interference,[5],FLuc signal is obtained through reporter interference
same,effect on reporter activity by reporter stabilization,[6],increase the activity of the reporters
N#CC(C#N)=NNc1cccc(Cl)c1 [carbonyl cyanide m-chlorophenyl hydrazone],induction of Parkin expression,[4],induce Parkin expression
"CC(C)(C)c1cc(O)ccc1O [tBHQ, tert-Butylhydroquinone]",reporter output vs DMSO,[7],greater RLU values
